System: mixed solution of 8 types of bacteria
Assay: MIC and synergistic index on a mixed solution of 8 types of bacteria, two fold dilution method
Format: cell-based
Settings: 72 h; 30 degrees centigrade, 3 days, Tryptic Soy Broth; read-out: Qa: MIC value on the mixed strain of a single 3-isothiazolone
Protocol: The sterilizing effects of 3-isothiazolone and polyhexamethyleneguanidine phosphate on a mixed solution of 8 types of bacteria (Enterobacter aerogens ATCC 13048, Escherichia coli ATCC 11229, Micrococcus luteus ATCC 9341, Pseudomonas aeruginosa ATCC 15442, Klebsiella pneumoniae, Staphylococcus epidermis ATCC 155, Staphylococcus aureus ATCC 6538, and Bacillus subtilis ATCC 6984) were tested using Tryptic Soy Broth manufactured by Difco Corporation according to the two fold dilution method. The minimum inhibiting concentration of each biocide and mixtures thereof were determined by observation with the naked eye of the degree of muddiness of the lowest concentration in which growth was deteriorated after culturing a culture fluid in which biocides and microorganisms are added at 30 degrees centigrade for 3 days.

O=c1ccs[nH]1 [3-isothiazolone]
MIC: 18.8 µg/mL

From US8309110B2, “Biocide composition and sterilization method using the same” (priority 1998, dated 2012)
